Measurements published in article PMC6054628.

Key:
[1] = Head-to-tail native chemical ligation in two-module microfluidic flow: SEAon peptide amide rearranged to SEAE thioester (pH 1, TCEP, 60 min, 90 or 65 C), then MPAA (0.4 M)/Na2HPO4 (0.2 M) pH 7.3 cyclisation onto N-terminal Cys; conditions: water (phosphate buffer, MPAA, TCEP; decane segmented carrier; 6 M Gn.HCl for 4l-p), 0.6 mM, 37.0 °C, 2 steps
[2] = Head-to-tail native chemical ligation in two-module microfluidic flow: SEAon peptide amide rearranged to SEAE thioester (pH 1, TCEP, 60 min, 90 or 65 C), then MPAA (0.4 M)/Na2HPO4 (0.2 M) pH 7.3 cyclisation onto N-terminal Cys, 4 min; conditions: 30-membered ring, water (phosphate buffer, MPAA, TCEP; decane segmented carrier), 0.6 mM, 37.0 °C, 0.067 h, 2 steps, scale: %
[3] = the molecule shown is the open-chain precursor, 54-membered ring, 0.25 h

H-CTRGFCRCLCRRGVCRCI-SEAon (via SEAE thioester)
ring closure, yield over several steps [1, 3]: 34%

CC[C@H](C)[C@@H]1NC(=O)[C@H](CS)NC(=O)[C@H](C(C)C)NC(=O)CNC(=O)[C@H](Cc2c[nH]cn2)NC(=O)[C@H](C(C)C)NC(=O)[C@@H]2CCCN2C(=O)CNC(=O)[C@H](CC(N)=O)NC(=O)[C@H](CC(C)C)NC1=O [H-CILNGPVHGV-SEAon (via SEAE thioester)]
ring closure, conversion by HPLC ([2]; from CC[C@H](C)[C@H](NC(=O)[C@@H](N)CS)C(=O)N[C@@H](CC(C)C)C(=O)N[C@@H](CC(N)=O)C(=O)NCC(=O)N1CCC[C@H]1C(=O)N[C@H](C(=O)N[C@@H](Cc1c[nH]cn1)C(=O)NCC(=O)N[C@H](C(=O)SCCNCCS)C(C)C)C(C)C): 63 | ring closure, yield over several steps ([1]; from CC[C@H](C)[C@H](NC(=O)[C@@H](N)CS)C(=O)N[C@@H](CC(C)C)C(=O)N[C@@H](CC(N)=O)C(=O)NCC(=O)N1CCC[C@H]1C(=O)N[C@H](C(=O)N[C@@H](Cc1c[nH]cn1)C(=O)NCC(=O)N[C@H](C(=O)SCCNCCS)C(C)C)C(C)C, 30-membered ring, 0.067 h): 66%

H-CRAIATRGFARALARRGV-SEAon (via SEAE thioester)
ring closure, yield over several steps ([1]; the molecule shown is the open-chain precursor, 54-membered ring, 0.067 h): 37%

CC[C@H](C)[C@@H]1NC(=O)CNC(=O)[C@H](Cc2c[nH]cn2)NC(=O)[C@H](C(C)C)NC(=O)CNC(=O)[C@H](CCC(=O)O)NC(=O)[C@H](CCCCN)NC(=O)[C@H](CC(C)C)NC(=O)[C@H]([C@@H](C)CC)NC(=O)[C@H](CS)NC1=O [H-CILKEGVHGI-SEAon (via SEAE thioester)]
ring closure, conversion by HPLC ([2]; from CC[C@H](C)[C@H](NC(=O)[C@@H](N)CS)C(=O)N[C@@H](CC(C)C)C(=O)N[C@@H](CCCCN)C(=O)N[C@@H](CCC(=O)O)C(=O)NCC(=O)N[C@H](C(=O)N[C@@H](Cc1c[nH]cn1)C(=O)NCC(=O)N[C@H](C(=O)SCCNCCS)[C@@H](C)CC)C(C)C): 96 | ring closure, yield over several steps ([1]; from CC[C@H](C)[C@H](NC(=O)[C@@H](N)CS)C(=O)N[C@@H](CC(C)C)C(=O)N[C@@H](CCCCN)C(=O)N[C@@H](CCC(=O)O)C(=O)NCC(=O)N[C@H](C(=O)N[C@@H](Cc1c[nH]cn1)C(=O)NCC(=O)N[C@H](C(=O)SCCNCCS)[C@@H](C)CC)C(C)C, 30-membered ring, 0.067 h): 51%

CC[C@H](C)[C@@H]1NC(=O)[C@H](CS)NC(=O)[C@H](CC(C)C)NC(=O)CNC(=O)[C@H](Cc2c[nH]cn2)NC(=O)[C@H](C(C)C)NC(=O)[C@@H]2CCCN2C(=O)CNC(=O)[C@H](CC(N)=O)NC(=O)[C@H](CC(C)C)NC1=O [H-CILNGPVHGL-SEAon (via SEAE thioester)]
ring closure, conversion by HPLC ([2]; from CC[C@H](C)[C@H](NC(=O)[C@@H](N)CS)C(=O)N[C@@H](CC(C)C)C(=O)N[C@@H](CC(N)=O)C(=O)NCC(=O)N1CCC[C@H]1C(=O)N[C@H](C(=O)N[C@@H](Cc1c[nH]cn1)C(=O)NCC(=O)N[C@@H](CC(C)C)C(=O)SCCNCCS)C(C)C): 85 | ring closure, yield over several steps ([1]; from CC[C@H](C)[C@H](NC(=O)[C@@H](N)CS)C(=O)N[C@@H](CC(C)C)C(=O)N[C@@H](CC(N)=O)C(=O)NCC(=O)N1CCC[C@H]1C(=O)N[C@H](C(=O)N[C@@H](Cc1c[nH]cn1)C(=O)NCC(=O)N[C@@H](CC(C)C)C(=O)SCCNCCS)C(C)C, 30-membered ring, 0.067 h): 80%

CC[C@H](C)[C@@H]1NC(=O)[C@H](CS)NC(=O)[C@H](C(C)C)NC(=O)CNC(=O)[C@H](Cc2c[nH]cn2)NC(=O)[C@H](C(C)C)NC(=O)CNC(=O)[C@H](CCC(=O)O)NC(=O)[C@H](CCCCN)NC(=O)[C@H](CC(C)C)NC1=O [H-CILKEGVHGV-SEAon (via SEAE thioester)]
ring closure, conversion by HPLC ([2]; from CC[C@H](C)[C@H](NC(=O)[C@@H](N)CS)C(=O)N[C@@H](CC(C)C)C(=O)N[C@@H](CCCCN)C(=O)N[C@@H](CCC(=O)O)C(=O)NCC(=O)N[C@H](C(=O)N[C@@H](Cc1c[nH]cn1)C(=O)NCC(=O)N[C@H](C(=O)SCCNCCS)C(C)C)C(C)C): 73 | ring closure, yield over several steps ([1]; from CC[C@H](C)[C@H](NC(=O)[C@@H](N)CS)C(=O)N[C@@H](CC(C)C)C(=O)N[C@@H](CCCCN)C(=O)N[C@@H](CCC(=O)O)C(=O)NCC(=O)N[C@H](C(=O)N[C@@H](Cc1c[nH]cn1)C(=O)NCC(=O)N[C@H](C(=O)SCCNCCS)C(C)C)C(C)C, 30-membered ring, 0.067 h): 46%

CC[C@H](C)[C@@H]1NC(=O)[C@H](CS)NC(=O)[C@H](C(C)C)NC(=O)CNC(=O)[C@H](Cc2c[nH]cn2)NC(=O)[C@H](C(C)C)NC(=O)[C@@H]2CCCN2C(=O)CNC(=O)[C@H](CC(=O)O)NC(=O)[C@H](CC(C)C)NC1=O [H-CILDGPVHGV-SEAon (via SEAE thioester)]
ring closure, conversion by HPLC ([2]; from CC[C@H](C)[C@H](NC(=O)[C@@H](N)CS)C(=O)N[C@@H](CC(C)C)C(=O)N[C@@H](CC(=O)O)C(=O)NCC(=O)N1CCC[C@H]1C(=O)N[C@H](C(=O)N[C@@H](Cc1c[nH]cn1)C(=O)NCC(=O)N[C@H](C(=O)SCCNCCS)C(C)C)C(C)C): 43 | ring closure, yield over several steps ([1]; from CC[C@H](C)[C@H](NC(=O)[C@@H](N)CS)C(=O)N[C@@H](CC(C)C)C(=O)N[C@@H](CC(=O)O)C(=O)NCC(=O)N1CCC[C@H]1C(=O)N[C@H](C(=O)N[C@@H](Cc1c[nH]cn1)C(=O)NCC(=O)N[C@H](C(=O)SCCNCCS)C(C)C)C(C)C, 30-membered ring, 0.067 h): 37%

H-CRCLCRRGVCRCICTRGF-SEAon (via SEAE thioester)
ring closure, yield over several steps [1, 3]: 23%

H-CRCICTRGFCRCLCRRGV-SEAon (via SEAE thioester)
ring closure, yield over several steps [1, 3]: 29%

CC[C@H](C)[C@@H]1NC(=O)[C@H](CS)NC(=O)[C@H](CC(C)C)NC(=O)CNC(=O)[C@H](Cc2c[nH]cn2)NC(=O)[C@H](C(C)C)NC(=O)[C@@H]2CCCN2C(=O)CNC(=O)[C@H](CC(=O)O)NC(=O)[C@H](CC(C)C)NC1=O [H-CILDGPVHGL-SEAon (via SEAE thioester)]
ring closure, conversion by HPLC ([2]; from CC[C@H](C)[C@H](NC(=O)[C@@H](N)CS)C(=O)N[C@@H](CC(C)C)C(=O)N[C@@H](CC(=O)O)C(=O)NCC(=O)N1CCC[C@H]1C(=O)N[C@H](C(=O)N[C@@H](Cc1c[nH]cn1)C(=O)NCC(=O)N[C@@H](CC(C)C)C(=O)SCCNCCS)C(C)C): 80 | ring closure, yield over several steps ([1]; from CC[C@H](C)[C@H](NC(=O)[C@@H](N)CS)C(=O)N[C@@H](CC(C)C)C(=O)N[C@@H](CC(=O)O)C(=O)NCC(=O)N1CCC[C@H]1C(=O)N[C@H](C(=O)N[C@@H](Cc1c[nH]cn1)C(=O)NCC(=O)N[C@@H](CC(C)C)C(=O)SCCNCCS)C(C)C, 30-membered ring, 0.067 h): 64%

CC[C@H](C)[C@@H]1NC(=O)[C@H](CS)NC(=O)[C@H](C(C)C)NC(=O)CNC(=O)[C@H](Cc2c[nH]cn2)NC(=O)[C@H](C(C)C)NC(=O)[C@@H]2CCCN2C(=O)[C@H](CCC(=O)O)NC(=O)[C@H](CCCCN)NC(=O)[C@H](CC(C)C)NC1=O [H-CILKEPVHGV-SEAon (via SEAE thioester)]
ring closure, conversion by HPLC ([2]; from CC[C@H](C)[C@H](NC(=O)[C@@H](N)CS)C(=O)N[C@@H](CC(C)C)C(=O)N[C@@H](CCCCN)C(=O)N[C@@H](CCC(=O)O)C(=O)N1CCC[C@H]1C(=O)N[C@H](C(=O)N[C@@H](Cc1c[nH]cn1)C(=O)NCC(=O)N[C@H](C(=O)SCCNCCS)C(C)C)C(C)C): 56 | ring closure, yield over several steps ([1]; from CC[C@H](C)[C@H](NC(=O)[C@@H](N)CS)C(=O)N[C@@H](CC(C)C)C(=O)N[C@@H](CCCCN)C(=O)N[C@@H](CCC(=O)O)C(=O)N1CCC[C@H]1C(=O)N[C@H](C(=O)N[C@@H](Cc1c[nH]cn1)C(=O)NCC(=O)N[C@H](C(=O)SCCNCCS)C(C)C)C(C)C, 30-membered ring, 0.067 h): 46%

H-CQPWSSMIPHEHSFLPSSYRGKDLQENY-SEAon (via SEAE thioester)
ring closure, yield over several steps ([1]; the molecule shown is the open-chain precursor, 84-membered ring, 0.25 h): 41%
